# Laboratory results taken from patent US20260124268A1 (priority 2019, published 2026).
# Several values for one entry are separate records, joined by “and”; a condition that tells them apart may be missing. Equal entries are not always repeated. Where two headings read alike, the source gives them in different places.
# Assays:
# MRSA LA = test: microbe, parasite or virus in culture; type: cell-based; conditions: Staphylococcus aureus, 24 h
# MRSA 81M = test: microbe, parasite or virus in culture; type: cell-based; conditions: Staphylococcus aureus, 24 h
# [1] = system: Clostridium perfringens (CL-15, Type-A); type: in vivo, broilers (male Cobb 500); conditions: SF: salinomycin 0.042% in feed, day 21
# [2] = Growth performance and feed efficiency of challenged broilers; type: in vivo, broilers (male Cobb 500); conditions: SF: salinomycin 0.042% in feed; for Avg. daily gain / Weight gain: per bird
# Source text: Bird Placement. The birds in this study were sourced from a commercial hatchery and were housed at the Colorado Quality Research facility (CQR). Healthy male Cobb 500 were used in this study and were vaccinated for Mareks at the hatchery and upon arrival at CQR the birds were vaccinated for Newcastle and Infectious Bronchitis and were randomly divided into five treatments. At placement 24 birds were placed into each pen with 11 replicates per treatment. On day eight birds were culled or replaced as needed to have 22 birds per pen with the pen being the statistical unit. The treatments were assigned to blocks and randomized within blocks. All birds in this experiment were discarded on site. All data was collected by the Colorado Quality Research (CQR) staff. The protocol MS-18-1 was approved by the CQR IACUC committee.
# Basal and Experimental Diets. The starter, grower, and basal diets were manufactured at the CQR feed mill using CQR formulated diets and described in Table 1. The feed was made and stored in bulk. The final experimental diet mixing, pelleting and crumbling was conducted at CQR using a 500-lb capacity vertical mixer (Seedburo, Golden Valley, MN), a 4000-lb capacity vertical mixer (Prater, Bolingbrook, IL) and/or a 14,000-lb horizontal mixer (H&S Manufacturing, Marshfield, WI) and a California pellet mill (CPM Co., Crawfordsville, IN). The feed was stored in 50-lb feed sacks until needed.
# The product was made fresh daily and administered in the water using a liquid medicator (Farmer Boy Ag, Myerstown, PA). A different stock solution was prepared for each treatment and the stock solutions were weighed each day to determine the amount of product consumed. The stock solutions were adjusted accordingly to ensure that the correct dose has been administered based on water consumption. The antibiotic control SF birds were administered Salinomycin (Sacox 60, Phibro Animal Health Corp., Teaneck, NJ) in the feed at 0.042% for the whole experimental period. […] If abnormal conditions or abnormal behavior is noted at any of the twice-daily observations they were documented and added to the study records. The maximum and minimum temperatures were recorded daily. The dead birds were collected and counted each day from each pen. The mortality was recorded on pen sheet and the cause of death was recorded. The pen mortality and the NE-associated mortality were calculated based on total mortality and as a percentage. The percentages were calculated based on the number of re-count birds on day 8. The birds were weighed on day 0, 17, 28, and 35 and the average daily gain was calculated for each of these time periods. The final pen weight was also measured. The amount of feed consumed was calculated from the starter feed (DO-17), the grower feed (D18-28), finisher feed (D29-35), and over the whole period (DO-35). The feed efficiency and adjusted feed efficiency were calculated to compare different growth periods. On day 21, 5 birds from each pen were randomly selected using a first caught method. The birds were sacrificed and evaluated for intestinal lesions to score the severity of the lesion scores using the scale in Table 4.
# [3] = system: Clostridium perfringens (CL-15, Type-A); type: in vivo, broilers (male Cobb 500); conditions: SF: salinomycin 0.042% in feed
# [4] = Evaluation of litter score (percent caked litter); type: in vivo, broilers (male Cobb 500); conditions: SF: salinomycin 0.042% in feed; day 28
# Method: Evaluation of Litter Score. The litter from each pen was evaluated on day 28 of the trial. The litter was evaluated based on percentage of caked litter in the pen. The percentages were grouped from 0-19, 20-39, 40-59, 60-79, and 80-100%. The mid-value from the percentage range was used to calculate the average pen litter score.
# [5] = Day 28-35, % of birds at day 8 re-count
compound,measurement,setting,value
CO[C@@]1(NC(=O)Cc2cccs2)C(=O)N2C(C(=O)O)=C(COC(N)=O)CS[C@@H]21 [cefoxitin],MIC,MRSA LA,60 µg/mL
same,MIC,MRSA 81M,100 µg/mL
"CC[C@@H](C(=O)[C@@H](C)[C@@H](O)[C@H](C)[C@@H]1O[C@@H]([C@@H](CC)C(=O)O)CC[C@@H]1C)[C@H]1O[C@]2(C=C[C@@H](O)[C@]3(CC[C@@](C)([C@H]4CC[C@](O)(CC)[C@H](C)O4)O3)O2)[C@H](C)C[C@@H]1C [Salinomycin, salinomycin]",Reduction in lesion score compared to NTC,[1],50.6%
same,Average lesion score,[1]; scale 0-4,0.80
same,Adj. F:G (adjusted feed-to-gain ratio),[2]; D 0-17,1.287
same,F:G (feed-to-gain ratio),[2]; D 0-17,1.320
same,Avg. daily gain,[2]; D 0-17,28.1 g/day
same,Weight gain,[2]; D 0-17,0.479 kg
same,Adj. F:G (adjusted feed-to-gain ratio),[2]; D 0-28,1.368
same,F:G (feed-to-gain ratio),[2]; D 0-28,1.656
same,Avg. daily gain,[2]; D 0-28,50.3 g/day
same,Weight gain,[2]; D 0-28,1.407 kg
same,Adj. F:G (adjusted feed-to-gain ratio),[2]; D 0-35,1.448
same,F:G (feed-to-gain ratio),[2]; D 0-35,1.666
same,Avg. daily gain,[2]; D 0-35,59.6 g/day
same,Weight gain,[2]; D 0-35,2.087 kg
same,Adj. F:G (adjusted feed-to-gain ratio),[2]; D17-28,1.421
same,Difference in weight gain compared to NTC,[2]; D17-28,−0.21%
same,F:G (feed-to-gain ratio),[2]; D17-28,1.947
same,Weight gain less than NTC birds,[2]; D17-28,2 grams
same,Avg. daily gain,[2]; D 17-28,84.4 g/day
same,Weight gain,[2]; D 17-28,0.928 kg
same,Adj. F:G (adjusted feed-to-gain ratio),[2]; D 28-35,1.654
same,F:G (feed-to-gain ratio),[2]; D 28-35,1.691
same,Avg. daily gain,[2]; D 28-35,97.1 g/day
same,Weight gain,[2]; D 28-35,0.680 kg
same,Increase in the harvest weight (final pen weight) compared to NTC,[2]; day 35,18.2%
same,Average pen weight,[2]; live pen weight at day 35,34.59 kg and 34.59a kg
same,Total Mortality,"[3]; Day 0-17, % of birds at day 8 re-count",(2.1%)
same,Total Mortality,"[3]; Day 0-17, birds dead",5
same,Total Mortality,"[3]; Day 0-35, % of birds at day 8 re-count",(5.4%)
same,NE Mortality,"[3]; Day 0-35, birds dead",5
same,Total Mortality,"[3]; Day 0-35, birds dead",13
same,Total Mortality,"[3]; Day 17-28, % of birds at day 8 re-count",(2.1%)
same,NE Mortality,"[3]; Day 17-28, birds dead",4
same,Total Mortality,"[3]; Day 17-28, birds dead",5
same,NE Mortality,[3]; [5],(0.4%)
same,Total Mortality,[3]; [5],(1.2%)
same,NE Mortality,"[3]; Day 28-35, birds dead",1
same,Total Mortality,"[3]; Day 28-35, birds dead",3
same,Average percent caked litter,[4],79%
